PubChem BioAssay AID504515 (Sanford-Burnham Center for Chemical Genomics, 2011)
Calls of active or inactive are those of the source.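 Rule for the calls: active = mean IC50 below 800 nM; inactive = the rest.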

test system: Jurkat NF-kB luciferase, PMA/ionomycin-induced, luminescence 16 h; experiment: NF-kB reporter inhibition in Jurkat T cells, SAR follow-up, B-cell antigen receptor NF-kB inhibitors, cell-based, luminescence, set 2 (AID 504515)

Compound | IC50
CCOc1ccc(-c2nc(CSCC(=O)O)c(C)o2)cc1 | 30 nM
CCOc1ccc(-c2nc(CSCC(N)=O)c(C)o2)cc1 | > 800 nM (inactive)
CCCCOc1ccc(-c2nc(CSCC(=O)O)c(C)o2)cc1 | 70 nM
CCCCc1ccc(-c2noc(CCC(=O)NCC)n2)cc1 | > 800 nM (inactive)
Cc1oc(-c2ccc(OC(F)(F)F)cc2)nc1CSCC(=O)O | 290 nM
CCCOc1ccc(-c2nc(CSCC(=O)NC3CC3)c(C)o2)cc1 | > 800 nM (inactive)
CC(C)c1ccc(-c2noc(CCC(=O)NC3CC3)n2)cc1 | > 800 nM (inactive)

Continued, values first:

IC50 | Compound
30 nM | CCCOc1ccc(-c2nc(CSCC(=O)O)c(C)o2)cc1
> 800 nM (inactive) | CCCOc1ccc(-c2nc(CSCC(=O)NCc3ccco3)c(C)o2)cc1
> 800 nM (inactive) | C#CCNC(=O)CSCc1nc(-c2ccc(OCC)cc2)oc1C
> 800 nM (inactive) | CCCCc1ccc(-c2noc(CCC(=O)NC)n2)cc1
